Among the data in patent US10927123B2, “Modulators of the beta-3 adrenergic receptor useful for the treatment or prevention of disorders related thereto” (Arena Pharmaceuticals, Inc., priority 2016, dated 2021) are IC50 values, retold here.

The experiment deals with Beta-3 Adrenergic Receptor (Homo sapiens (Human), UniProt P13945). Nature of the experiment: HTRF cAMP antagonist assay (IC50 determination). The following applies: CHO-K1 cells stably expressing recombinant receptor; antagonism of isoproterenol at EC90; cAMP readout. It is filed as cell-based. An outline of the steps: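 Antagonist mode: isoproterenol at its predetermined EC90 added after compound to recombinant CHO-K1 cells in IBMX-containing PBS, 1 h, room temperature. Compounds tested as 5-fold, 10-point dilutions, top final typically 10 or 100 μM. HTRF signal converted to cAMP via standard curve, giving IC50.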
(In general: In TR-FRET formats the signal depends on donor and acceptor labels being close together.)

Sequence of Beta-3 Adrenergic Receptor (P13945 whole entry, species assumed): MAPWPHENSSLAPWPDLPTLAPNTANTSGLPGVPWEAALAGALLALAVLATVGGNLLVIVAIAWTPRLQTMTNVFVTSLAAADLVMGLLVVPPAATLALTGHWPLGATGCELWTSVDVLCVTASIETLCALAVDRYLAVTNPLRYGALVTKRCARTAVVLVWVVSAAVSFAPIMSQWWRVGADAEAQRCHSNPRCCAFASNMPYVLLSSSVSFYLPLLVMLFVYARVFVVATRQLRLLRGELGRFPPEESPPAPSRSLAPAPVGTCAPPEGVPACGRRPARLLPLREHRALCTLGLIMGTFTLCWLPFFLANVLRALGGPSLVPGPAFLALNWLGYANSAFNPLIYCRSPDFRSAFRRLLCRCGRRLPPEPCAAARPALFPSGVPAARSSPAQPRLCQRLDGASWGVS

In general, IC50 refers to the concentration needed to halve the response being measured. Turning to `CCOc1c(S(=O)(=O)N2CCC3(CC2)C[C@@H](NC[C@H](O)COc2cccc(S(=O)(=O)C4(CO)CC4)c2)CO3)ccc2ccccc12` [Compound 301, (S)-1-((R)-8-(1-ethoxynaphthalen-2-ylsulfonyl)-1-oxa-8-azaspiro[4.5]decan-3-ylamino)-3-(3-(1-(hydroxymethyl)cyclopropylsulfonyl)phenoxy)propan-2-ol], the concentration for half-maximal inhibition (IC50) came out at 357 nM.

For the compound `C=CS(=O)(=O)c1cccc(OC[C@@H](O)CN[C@H]2COC3(CCN(S(=O)(=O)c4cnc5ccccc5c4)CC3)C2)c1` [Compound 92, (S)-1-((R)-8-(quinolin-3-ylsulfonyl)-1-oxa-8-azaspiro[4.5]decan-3-ylamino)-3-(3-(vinylsulfonyl)phenoxy)propan-2-ol], the IC50 stood at 26.9 nM.

For the compound `Cc1c(S(=O)(=O)N2CCC3(CC2)C[C@H](NC[C@H](O)COc2cccc(S(=O)(=O)C4(CO)CC4)c2)CO3)cnc2c1N(C)CCO2` [Compound 250, (S)-1-((S)-8-(1,8-dimethyl-2,3-dihydro-1H-pyrido[2,3-b][1,4]oxazin-7-ylsulfonyl)-1-oxa-8-azaspiro[4.5]decan-3-ylamino)-3-(3-(1-(hydroxymethyl)cyclopropylsulfonyl)phenoxy)propan-2-ol], the IC50 came to 336 nM.

With `O=S(=O)(c1cccc(OC[C@@H](O)CN[C@H]2COC3(CCN(S(=O)(=O)c4cnc5c(c4)NCCO5)CC3)C2)c1)C1CC1` [Compound 303, (S)-1-(3-(cyclopropylsulfonyl)phenoxy)-3-((R)-8-(2,3-dihydro-1H-pyrido[2,3-b][1,4]oxazin-7-ylsulfonyl)-1-oxa-8-azaspiro[4.5]decan-3-ylamino)propan-2-ol], the half-maximal inhibitory concentration (IC50) stood at 17.1 nM.

Turning to `CC(=O)NCCc1ccc(-c2cccc(S(=O)(=O)N3CCC4(CC3)C[C@@H](NC[C@H](O)COc3cccc(S(=O)(=O)C5(CO)CC5)c3)CO4)c2)cc1` [Compound 191, N-(2-(3′-((R)-3-((S)-2-hydroxy-3-(3-(1-(hydroxymethyl)cyclopropylsulfonyl)phenoxy)propylamino)-1-oxa-8-azaspiro[4.5]decan-8-ylsulfonyl)biphenyl-4-yl)ethyl)acetamide], the IC50 came out at 440 nM.

Turning to `O=S(=O)(c1cccc(OC[C@@H](O)CN[C@H]2COC3(CCN(S(=O)(=O)c4cnc5cn[nH]c5c4)CC3)C2)c1)C1CC1` [Compound 319, (S)-1-((R)-8-(1H-pyrazolo[4,3-b]pyridin-6-ylsulfonyl)-1-oxa-8-azaspiro[4.5]decan-3-ylamino)-3-(3-(cyclopropylsulfonyl)phenoxy)propan-2-ol], the IC50 is 16.5 nM.

On to `NCc1ccc(-c2cccc(S(=O)(=O)N3CCC4(CC3)C[C@@H](NC[C@H](O)COc3cccc(S(=O)(=O)C5(CO)CC5)c3)CO4)c2)cc1` [Compound 157, (S)-1-((R)-8-(4′-(aminomethyl)biphenyl-3-ylsulfonyl)-1-oxa-8-azaspiro[4.5]decan-3-ylamino)-3-(3-(1-(hydroxymethyl)cyclopropylsulfonyl)phenoxy)propan-2-ol], for which the IC50 was 25.7 nM.

In the case of `O=S(=O)(CCO)c1cccc(OC[C@@H](O)CN[C@H]2COC3(CCN(S(=O)(=O)c4ccc(-c5cccnc5)cc4)CC3)C2)c1` [Compound 99, (S)-1-(3-(2-hydroxyethylsulfonyl)phenoxy)-3-((R)-8-(4-(pyridin-3-yl)phenylsulfonyl)-1-oxa-8-azaspiro[4.5]decan-3-ylamino)propan-2-ol], the IC50 was 287 nM.

As for `CN1CCOc2ncc(S(=O)(=O)N3CCC4(CC3)C[C@@H](NC[C@H](O)COc3cccc(S(C)(=O)=O)c3)CO4)cc21` [Compound 152, (S)-1-((R)-8-(1-methyl-2,3-dihydro-1H-pyrido[2,3-b][1,4]oxazin-7-ylsulfonyl)-1-oxa-8-azaspiro[4.5]decan-3-ylamino)-3-(3-(methylsulfonyl)phenoxy)propan-2-ol], the IC50 worked out at 24.7 nM.

As for `Cc1cccc(S(=O)(=O)N2CCC3(CC2)CC(NC[C@H](O)COc2cccc(S(C)(=O)=O)c2)CO3)c1` (stereo partly drawn) [Compound 48, (2S)-1-(3-(methylsulfonyl)phenoxy)-3-(8-(m-tolylsulfonyl)-1-oxa-8-azaspiro[4.5]decan-3-ylamino)propan-2-ol], the IC50 came out at 46.1 nM.

In the case of `CCn1cc(S(=O)(=O)N2CCC3(CC2)C[C@@H](NC[C@H](O)COc2cccc(S(=O)(=O)C4CC4)c2)CO3)c(=O)c2cccc(C)c21` [Compound 315, 3-((R)-3-((S)-3-(3-(cyclopropylsulfonyl)phenoxy)-2-hydroxypropylamino)-1-oxa-8-azaspiro[4.5]decan-8-ylsulfonyl)-1-ethyl-8-methylquinolin-4(1H)-one], the IC50 was determined as 23.9 nM.

As for `O=S(=O)(CCO)c1cc(F)cc(OC[C@@H](O)CN[C@H]2COC3(CCN(S(=O)(=O)c4cnc5ccccc5c4)CC3)C2)c1` [Compound 248, (S)-1-(3-fluoro-5-(2-hydroxyethylsulfonyl)phenoxy)-3-((R)-8-(quinolin-3-ylsulfonyl)-1-oxa-8-azaspiro[4.5]decan-3-ylamino)propan-2-ol], the concentration for half-maximal inhibition (IC50) is 72.4 nM.

In the case of `NCc1ccc(-c2cncc(S(=O)(=O)N3CCC4(CC3)C[C@@H](NC[C@H](O)COc3cccc(S(=O)(=O)CCO)c3)CO4)c2)cc1` [Compound 89, (S)-1-((R)-8-(5-(4-(aminomethyl)phenyl)pyridin-3-ylsulfonyl)-1-oxa-8-azaspiro[4.5]decan-3-ylamino)-3-(3-(2-hydroxyethylsulfonyl)phenoxy)propan-2-ol], the half-inhibitory concentration (IC50) was determined as 110 nM.

Regarding `CCn1cc(S(=O)(=O)N2CCC3(CC2)C[C@@H](NC[C@H](O)COc2cccc(S(=O)(=O)C4(CO)CC4)c2)CO3)c(=O)c2ccccc21` [Compound 292, 1-ethyl-3-((R)-3-((S)-2-hydroxy-3-(3-(1-(hydroxymethyl)cyclopropylsulfonyl)phenoxy)propylamino)-1-oxa-8-azaspiro[4.5]decan-8-ylsulfonyl)quinolin-4(1H)-one], the IC50 is 90.2 nM.

For `COc1ccc(S(=O)(=O)N2CCC3(CC2)C[C@H](NC[C@H](O)COc2cccc(S(=O)(=O)C4(CO)CC4)c2)CO3)cc1-c1ccc(CCN)cc1` [Compound 215, (S)-1-((S)-8-(4′-(2-aminoethyl)-6-methoxybiphenyl-3-ylsulfonyl)-1-oxa-8-azaspiro[4.5]decan-3-ylamino)-3-(3-(1-(hydroxymethyl)cyclopropylsulfonyl)phenoxy)propan-2-ol], the half-inhibitory concentration (IC50) was determined as 38.4 nM.

Turning to `O=S(=O)(CCO)c1cccc(OC[C@@H](O)CN[C@H]2COC3(CCN(S(=O)(=O)c4cccc(-c5cccc(C(F)(F)F)n5)c4)CC3)C2)c1` [Compound 125, (S)-1-(3-(2-hydroxyethylsulfonyl)phenoxy)-3-((R)-8-(3-(6-(trifluoromethyl)pyridin-2-yl)phenylsulfonyl)-1-oxa-8-azaspiro[4.5]decan-3-ylamino)propan-2-ol], the half-inhibitory concentration (IC50) came out at 48.8 nM.

Regarding `COCCN1CCOc2ncc(S(=O)(=O)N3CCC4(CC3)C[C@@H](NC[C@H](O)COc3cccc(S(=O)(=O)C5CC5)c3)CO4)cc21` [Compound 304, (S)-1-(3-(cyclopropylsulfonyl)phenoxy)-3-((R)-8-(1-(2-methoxyethyl)-2,3-dihydro-1H-pyrido[2,3-b][1,4]oxazin-7-ylsulfonyl)-1-oxa-8-azaspiro[4.5]decan-3-ylamino)propan-2-ol], the IC50 was determined as 69 nM.

Turning to `NC1(c2ccc(-c3cccc(S(=O)(=O)N4CCC5(CC4)C[C@H](NC[C@H](O)COc4cccc(S(=O)(=O)C6(CO)CC6)c4)CO5)c3)cc2)CC1` [Compound 184, (S)-1-((S)-8-(4′-(1-aminocyclopropyl)biphenyl-3-ylsulfonyl)-1-oxa-8-azaspiro[4.5]decan-3-ylamino)-3-(3-(1-(hydroxymethyl)cyclopropylsulfonyl)phenoxy)propan-2-ol], the IC50 came out at 26.7 nM.

As to `COc1ccc(S(=O)(=O)N2CCC3(CC2)C[C@H](NC[C@H](O)COc2cccc(S(=O)(=O)C(F)(F)CO)c2)CO3)cc1-c1ccc(C2(N)CC2)cc1` [Compound 239, (S)-1-((S)-8-(4′-(1-aminocyclopropyl)-6-methoxybiphenyl-3-ylsulfonyl)-1-oxa-8-azaspiro[4.5]decan-3-ylamino)-3-(3-(1,1-difluoro-2-hydroxyethylsulfonyl)phenoxy)propan-2-ol], the IC50 was found to be 30.9 nM.

`CS(=O)(=O)c1cccc(OC[C@@H](O)CNC2COC3(CCN(C(=O)c4cc5ccccc5[nH]4)CC3)C2)c1` (stereo partly drawn) [Compound 65, (3-((S)-2-hydroxy-3-(3-(methylsulfonyl)phenoxy)propylamino)-1-oxa-8-azaspiro[4.5]decan-8-yl)(1H-indol-2-yl)methanone]: the IC50 stood at 711 nM.

For the compound `COc1cccc(S(=O)(=O)N2CCC3(CC2)CC(NC[C@H](O)COc2cccc(S(C)(=O)=O)c2)CO3)c1` (stereo partly drawn) [Compound 49, (2S)-1-(8-(3-methoxyphenylsulfonyl)-1-oxa-8-azaspiro[4.5]decan-3-ylamino)-3-(3-(methylsulfonyl)phenoxy)propan-2-ol], the half-maximal inhibitory concentration (IC50) amounted to 33.1 nM.

In the case of `CCOc1ccc(-c2ccc(CN)cc2)cc1S(=O)(=O)N1CCC2(CC1)C[C@@H](NC[C@H](O)COc1cccc(S(=O)(=O)C3(CO)CC3)c1)CO2` [Compound 158, (S)-1-((R)-8-(4′-(aminomethyl)-4-ethoxybiphenyl-3-ylsulfonyl)-1-oxa-8-azaspiro[4.5]decan-3-ylamino)-3-(3-(1-(hydroxymethyl)cyclopropylsulfonyl)phenoxy)propan-2-ol], the IC50 is 27.3 nM.

Regarding `Cc1c(-c2ccc(CN)cc2)cccc1S(=O)(=O)N1CCC2(CC1)C[C@H](NC[C@H](O)COc1cccc(S(=O)(=O)C3(CO)CC3)c1)CO2` [Compound 197, (S)-1-((S)-8-(4′-(aminomethyl)-2-methylbiphenyl-3-ylsulfonyl)-1-oxa-8-azaspiro[4.5]decan-3-ylamino)-3-(3-(1-(hydroxymethyl)cyclopropylsulfonyl)phenoxy)propan-2-ol], the IC50 was determined as 85 nM.

As for `O=S(=O)(CCO)c1cccc(OC[C@@H](O)CNC2COC3(CCN(S(=O)(=O)c4ccc5ccccc5c4)CC3)C2)c1` (stereo partly drawn) [Compound 5, (2S)-1-(3-(2-hydroxyethylsulfonyl)phenoxy)-3-(8-(naphthalen-2-ylsulfonyl)-1-oxa-8-azaspiro[4.5]decan-3-ylamino)propan-2-ol], the half-maximal inhibitory concentration (IC50) was 33.3 nM.
